We go through three molecules from publication PMC11020070, “Discovery of Protease-Activated Receptor 4 (PAR4)-Tethered Ligand Antagonists Using Ultralarge Virtual Screening” (ACS Pharmacology & Translational Science, 2024).

The nature of series [1]: Microsomal stability, mouse liver microsomes. To be noted: for CLint scaled at 1 µM: pH 7.4, mouse liver microsomes, in vitro, reaction started with NADPH; for mouse CLhep: predicted hepatic clearance from mouse liver microsomes. In kind it is in vitro ADME. The procedure:
The metabolic stability of each compound was investigated in mouse and human hepatic microsomes using substrate depletion methodology (% parent compound remaining). Prior to use, microsomes were removed from the freezer and allowed to thaw in a 37 °C water bath before being placed on wet ice.
(§1) In separate 96-well plates for each time point, a mixture of 0.1 M potassium phosphate-buffered (pH 7.4), 3 mM MgCl2, and 2.5 mg/mL microsomes were prewarmed at 37 °C for 5 min. Following the preincubation, a 1 μM test compound and 1 mM NADPH (for 3, 7, 15, 25, or 45 min time points) or buffer (for 0 min time point) were added to initiate the reaction. Under standard conditions, reactions were initiated with the addition of NADPH. To delineate the contribution of esterases, some experiments were initiated by the addition of substrate in the presence or absence of NADPH. Plates were incubated at 37 °C under ambient oxygenation. At the respective times, each plate’s reaction was precipitated by the addition of 2 volumes of ice-cold acetonitrile containing an internal standard (carbamazepine, 50 nM). The plates were centrifuged at 4000 rcf (4 °C) for 5 min. The resulting supernatants were transferred and diluted 1:1 (supernatant:water) into new 96-well plates in preparation for LC/MS/MS analysis. Each compound was assayed in triplicate within the same 96-well plate. The in vitro half-life (t1/2, min, eq 1), intrinsic clearance (CLint, mL/min/kg, eq 2), and subsequent predicted hepatic clearance (CLhep, mL/min/kg, eq 3) were determined employing the following equations [drawing 1] 1 [drawing 2] 2 [drawing 3] 3 The estimated percent contribution to metabolism was calculated from the percent substrate lost plots generated from metabolic incubations initiated with the addition of a test compound. Calculations compared the area under the curve (AUC) from conditions in the presence and absence of NADPH and buffer-only (control) conditions (eqs 4 and 5). AUC was calculated by using the trapezoidal method [drawing 4] 4 [drawing 5] 5
The analysis of in vitro samples from microsomal stability or plasma protein binding experiments was determined by employing LCMS/MS with an electrospray ionization-enabled 5500 Sciex instrument (Sciex, Foster City, CA) that was coupled to Agilent HPLC pumps and an autosampler (Agilent Technologies, Santa Clara, CA). Analytes were separated by gradient elution using a Kinetex C18 column (2.1 mm × 50 mm, 5 μm; Phenomenex, Torrance, CA) warmed to 35 °C. Mobile phase A was 0.5% formic acid in water, and mobile phase B was 0.5% formic acid in acetonitrile. […] The total run time was 2.8 min, and the HPLC flow rate was 0.5 mL/min. Mass spectral analyses were performed using multiple reaction monitoring, with transitions and voltages specific for each analyte using a Turbo Ion Spray source (source temperature of 500 °C) in positive ionization mode (5.0 kV spray voltage). Multiple reaction monitoring transitions were the following: 6110B8 (m/z 345.02 → 149.03, DP = 31; EP = 10; CE = 37 and CXP = 14), 6G3R (m/z 421.06 → 225.12, DP = 91; EP = 10; CE = 39 and CXP = 12), 5D22 (m/z 309.068 → 211.16, DP = 131; EP = 10; CE = 29 and CXP = 12), and carbamazepine (m/z 237 → 194, DP = 96; EP = 10; CE = 25 and CXP = 8). Data were analyzed using OS Sciex Analyst 1.5.1 (SCIEX, Framingham, MA), Graphpad Prism 10.1.0 (GraphPad Software, Boston, Massachusetts), and Microsoft Excel version 2310 (Microsoft, Redmond, WA).

A short description of series [2]: Modified microsomal clearance assay with or without NADPH, human liver microsomes. In kind it is in vitro ADME. The conditions noted are these: for Estimated % Contribution to Metabolism Human CYPs/FMOs / Estimated % Contribution to Metabolism Human Esterases: HLM, from AUC with/without NADPH vs buffer only; for CLint scaled at 1 µM: human, liver microsomes, pH 7.4, HLM, reaction initiated by test compound. The procedure:
It is of note that the experimental design for the initial round of microsomal clearance assays adds a test compound to microsomes before the reaction is started by the addition of nicotinamide adenine dinucleotide phosphate (NADPH). This design assumes that the major contributing drug-metabolizing enzymes are cytochrome P450s (CYPs). To investigate this further, the experimental design was modified where the reaction was initiated by the addition of a test compound and was carried out in the presence or absence of NADPH. […] By comparison of the measured intrinsic clearance in the presence and absence of NADPH, the contribution of non-CYP450 drug-metabolizing enzymes can be estimated.
Mammalian liver microsomes include CYPs, flavin monooxygenases (FMOs), glucuronosyltransferases ([…]), and esterases as part of their enzyme composition. In the presence of NADPH, which serves as a cofactor for CYP- and FMO-dependent reactions, the observed activity can be attributed to these enzymes. Similarly, UGTs require the cofactor uridine diphosphate glucuronic acid (UDPGA). Therefore, when NADPH and UDPGA are absent, any reduction in the compound can be ascribed only to esterase activity or chemical instability. […] This is based on two factors: (1) the stability of the compounds in HP buffer, which is used in the platelet assays, and (2) the low probability of drug metabolism occurring within the platelets themselves. Together, these minimize the chance that any metabolites with distinct PAR4 potencies could confound the results. By comparing the area under the curve of the compound metabolized from the microsomal incubations in the presence or absence of NADPH to the corresponding area under the curve of the buffer-only incubation, the percent contribution of CYPs and FMOs and esterases were estimated (Table S1). The major contributing enzyme toward the metabolism of 12 is esterases in both the human (96%) and mouse (98%). In contrast, the metabolism of 31 was primarily driven by CYPs and FMOs in both HLM (80%) and MLM (88%).
as §1
Clint (mL/min/kg) Estimated % Contribution to Metabolism
Compound Human Mouse Human Mouse +NADPH -NADPH +NADPH -NADPH CYPs/FMOs Esterases CYPs/FMOs Esterases […]

One may read the CLint scaled as a measure of how fast metabolising enzymes remove a compound, apart from limits set by blood flow. On to `Cn1nc(C(=O)Nc2n[nH]c(-c3c(F)cccc3F)n2)cc1C1CC1` [Compound 12], for which, in series [1], the CLint scaled at 1 µM was 11500 mL/min/kg and the “mouse CLhep” value is recorded as 89.3 mL/min/kg. In addition, in series [2], the “Estimated % Contribution to Metabolism Human CYPs/FMOs” value is on record as 4% and the “Estimated % Contribution to Metabolism Human Esterases” value is reported as 96%. In series [2] (+NADPH), this molecule came in with a CLint scaled at 1 µM of 642 mL/min/kg. The molecule further registered a CLint scaled at 1 µM in series [2] (-NADPH) of 352 mL/min/kg.
With `O=C(Nc1nc[nH]n1)c1nn(-c2ccccc2)c2c1CCC2` [Compound 17], the intrinsic clearance (CLint scaled) at 1 µM in series [1] turned out to be 2440 mL/min/kg; in series [2] (+NADPH), 26.8 mL/min/kg; in series [2] (-NADPH), 12.4 mL/min/kg. Also, in series [1], the “mouse CLhep” value was 86.8 mL/min/kg. The “Estimated % Contribution to Metabolism Human CYPs/FMOs” value in series [2] is 39%. The “Estimated % Contribution to Metabolism Human Esterases” value in series [2] was 61%.
For `O=C(Nc1n[nH]c(-c2ccc(F)cc2F)n1)c1nn(-c2ccccc2)c2c1CCCC2` [Compound 31], in series [1], the CLint scaled at 1 µM came to 19900 mL/min/kg and the “mouse CLhep” value was 89.6 mL/min/kg. In addition, in series [2], the “Estimated % Contribution to Metabolism Human CYPs/FMOs” value is listed as 80% and the “Estimated % Contribution to Metabolism Human Esterases” value is recorded as 20%. The same molecule yielded an intrinsic metabolic clearance (CLint scaled) at 1 µM in series [2] (+NADPH) of 144 mL/min/kg. Further, the intrinsic metabolic clearance (CLint scaled) at 1 µM in series [2] (-NADPH) stood at 15.6 mL/min/kg.
